Test results from US20230111310A1, “CARBOXYLIC ACID DERIVATIVE-SUBSTITUTED IMINO ARYL COMPOUND, PREPARATION METHOD THEREFOR, HERBICIDAL COMPOSITION AND USE THEREOF” (Qingdao Kingagroot Chemical Compound Co., Ltd., priority 2020, published 2023).

Assays:
Type in all cases: in vivo
Descurainia sophia = assay: Weeding effect in pre-emergence stage; details: 30 g/ha, 4 weeks
Outline: (§1)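 Test compounds were dissolved in acetone with tween 80, diluted with water and sprayed right after sowing, with seeds covered by 0.5-2 cm of soil. Rates were 500 to 7.5 g/ha. Growth control was scored against activity-level criteria after 4 weeks in the greenhouse.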

Abutilon theophrasti [1] = assay: Weeding effect in pre-emergence stage; details: 30 g/ha, 4 weeks
Outline: as §1

Veronica didyma Tenore = assay: Weeding effect in pre-emergence stage; details: 30 g/ha, 4 weeks
Outline: as §1

Amaranthus retroflexus = assay: Weeding effect in pre-emergence stage; details: 30 g/ha, 4 weeks
Outline: as §1

Setaria viridis [2] = assay: Weeding effect in pre-emergence stage; details: 30 g/ha, 4 weeks
Outline: as §1

Capsella bursa-pastoris = assay: Weeding effect in pre-emergence stage; details: 30 g/ha, 4 weeks
Outline: as §1

Peanut = assay: Pre-emergence stage, crop selectivity; details: 30 g/ha, 4 weeks
Outline: as §1

corn = assay: Pre-emergence stage, crop selectivity; details: 30 g/ha, 4 weeks
Outline: as §1

Soybeans = assay: Pre-emergence stage, crop selectivity; details: 30 g/ha, 4 weeks
Outline: as §1

cotton = assay: Pre-emergence stage, crop selectivity; details: 30 g/ha, 4 weeks
Outline: as §1

Echinochloa crusgalli = assay: Weeding effect in post-emergence stage; details: Dose 15 g/ha; level of fresh weight growth control rate
Outline: (§2)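 Pot-grown weeds were sprayed at the 2-3 leaf stage, 2 weeks after sowing, with compound in acetone plus Tween 80 and 1.5 liter/ha methyl oleate emulsifiable concentrate, diluted in water. Doses were 500, 250, 125, 60, 30, 15, 7.5 g/ha. Growth control was scored after 3 weeks in greenhouse; mean of three replicates.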

Abutilon theophrasti [3] = assay: Weeding effect in post-emergence stage; details: Dose 15 g/ha; level of fresh weight growth control rate
Outline: as §2

Digitaria sanguinalis = assay: Weeding effect in post-emergence stage; details: Dose 15 g/ha; level of fresh weight growth control rate
Outline: as §2

Alopecurus japonicus = assay: Weeding effect in post-emergence stage; details: Dose 15 g/ha; level of fresh weight growth control rate
Outline: as §2

Setaria viridis [4] = assay: Weeding effect in post-emergence stage; details: Dose 15 g/ha; level of fresh weight growth control rate
Outline: as §2

Eleusine indica = assay: Weeding effect in post-emergence stage; details: Dose 15 g/ha; level of fresh weight growth control rate
Outline: as §2

SMILES	activity level (growth control rate) Descurainia sophia (Descurainia sophia)	activity level (growth control rate) Abutilon theophrasti (Abutilon theophrasti [1])	activity level (growth control rate) Veronica didyma Tenore (Veronica didyma Tenore)	activity level (growth control rate) Amaranthus retroflexus (Amaranthus retroflexus)	activity level (growth control rate) Setaria viridis (Setaria viridis [2])	activity level (growth control rate) Capsella bursa-pastoris (Capsella bursa-pastoris)	plant damage level Peanut (Peanut)	plant damage level Corn (corn)	plant damage level Soybeans (Soybeans)	plant damage level Cotton (cotton)	Weeding effect in post-emergence stage, Echinochloa crusgalli (Echinochloa crusgalli)	Weeding effect in post-emergence stage, Abutilon theophrasti (Abutilon theophrasti [3])	Weeding effect in post-emergence stage, Digitaria sanguinalis (Digitaria sanguinalis)	Weeding effect in post-emergence stage, Alopecurus japonicus (Alopecurus japonicus)	Weeding effect in post-emergence stage, Setaria viridis (Setaria viridis [4])	Weeding effect in post-emergence stage, Eleusine indica (Eleusine indica)
C[C@@H](O/N=C/c1cc(-n2c(=O)cc(C(F)(F)F)n(C)c2=O)c(F)cc1Cl)C(=O)ON=C1CCCC1 [258(R)]	5 (Level 5: growth control rate is above 85%)	5 (Level 5: growth control rate is above 85%)	5 (Level 5: growth control rate is above 85%)	5 (Level 5: growth control rate is above 85%)	5 (Level 5: growth control rate is above 85%)	5 (Level 5: growth control rate is above 85%)	0 (Level 0: growth control rate is less than 5%)	0 (Level 0: growth control rate is less than 5%)	0 (Level 0: growth control rate is less than 5%)	0 (Level 0: growth control rate is less than 5%)	5 (Level 5: growth control rate is above 85%)	5 (Level 5: growth control rate is above 85%)	5 (Level 5: growth control rate is above 85%)	4 (Level 4: growth control rate is greater than or equal to 60% and less than 85%)	5 (Level 5: growth control rate is above 85%)	5 (Level 5: growth control rate is above 85%)
C[C@@H](O/N=C/c1cc(-n2c(=O)cc(C(F)(F)F)n(C)c2=O)c(F)cc1Cl)C(=O)OCC1CCCO1 (stereo partly drawn) [264(R)]	5 (Level 5: growth control rate is above 85%)	5 (Level 5: growth control rate is above 85%)	5 (Level 5: growth control rate is above 85%)	5 (Level 5: growth control rate is above 85%)	5 (Level 5: growth control rate is above 85%)	5 (Level 5: growth control rate is above 85%)	0 (Level 0: growth control rate is less than 5%)	0 (Level 0: growth control rate is less than 5%)	0 (Level 0: growth control rate is less than 5%)	0 (Level 0: growth control rate is less than 5%)	5 (Level 5: growth control rate is above 85%)	5 (Level 5: growth control rate is above 85%)	5 (Level 5: growth control rate is above 85%)	5 (Level 5: growth control rate is above 85%)	5 (Level 5: growth control rate is above 85%)	5 (Level 5: growth control rate is above 85%)
